A short description of this series: Solubility of the dye. It is filed as physicochemical.

As to `Cc1ccc(Nc2ccc3c4c(cc(=O)n3C)-c3ccccc3C(=O)c24)c(S(=O)(=O)[O-])c1.[Na+]` [Acid Red 80, C. I. Acid Red 80], the “solubility compared with Acid Red 82” value is listed as “less than that of Acid Red 82”.

Values taken from patent US7193085B2, “Acid Red 82 in mixtures” (Lanxess Deutschland GmbH, priority 2002, dated 2007).
